Key:
[1] = system: CCR6^+ TM cells; experiment: Effect of PI-3K/Akt inhibitors on cytokine production of IL-7-cultured CCR6+ memory T cells; type: cell-based, human; conditions: one week in IL-7, then inhibitor for 48 hours, restimulation
Method: (§1) Peripheral Blood Mononuclear Cells (PBMCs) from healthy individuals (New York Blood Center, New York, N.Y.) were prepared using Ficoll-paque plus (GE Amersham, Uppsala, Sweden). Whole blood samples from rheumatoid arthritis patients were purchased from Bioreclamation (New York, N.Y.) and were processed similar to healthy donor blood. All healthy donor and patient samples were consented prior to purchase, were none-identifiable and approved by institutional human subjects board. CD4^+ T cells were isolated using Dynal CD4 Positive Isolation Kit (Invitrogen, Carlsbad, Calif.) directly from purified PBMCs and were >99% pure. CD4^+ T cells were sorted by FACS ARIA cell sorter (BD, San Jose, Calif.) into CD45RO^+ CD25^− memory T (TM) cells. TM cells were activated either by anti-CD3 and anti-CD28 (aCD3/aCD28) coated beads (1:4 beads:cells ratio) for 18-24 hours, or by Phorbol 12-myristate 13-acetate (PMA) and ionomycin for 4 hours and further FACS sorted based on CCR6 and IL-17 expression into CCR6^−IL-17^−, CCR6^+IL-17^+, or CCR6^+ IL-17^− subsets (as determined by secretion assay labeling, see below). Sorted cells (>99% pure) were cultured in serum-free Xvivo-15 medium (Lonza, Wakersville, Md.) at 37° C. and 5% CO2 for 6-7 days prior to restimulation with PMA and ionomycin (see below). […] To determine the fold expansion, CCR6^+IL-17^+ or CCR6^+IL-17^− subsets were labeled with CFSE (Molecular Probes, Eugene, Oreg.) or eFluor 670 (eBioscience, San Diego, Calif.), respectively, as previously described (Oswald-Richter, et al., PLoS Biol 2004; 2: E198). […] In the experiments using PI-3K signaling inhibitors, cells were treated with PI-3K specific inhibitor, LY294002 (EMD, Gibbstown, N.J.), or Akt specific inhibitor, AKTi-1/2 (EMD), for 2 days before PMA and Ionomycin restimulation.

[2] = system: Akt; experiment: Cytokine-dependent Akt phosphorylation in memory T cells treated with inhibitors; type: cell-based, human; conditions: 1-10 μg/mL inhibitor, 48 hours
Method: (§2) Peripheral Blood Mononuclear Cells (PBMCs) from healthy individuals (New York Blood Center, New York, N.Y.) were prepared using Ficoll-paque plus (GE Amersham, Uppsala, Sweden). Whole blood samples from rheumatoid arthritis patients were purchased from Bioreclamation (New York, N.Y.) and were processed similar to healthy donor blood. All healthy donor and patient samples were consented prior to purchase, were none-identifiable and approved by institutional human subjects board. CD4^+ T cells were isolated using Dynal CD4 Positive Isolation Kit (Invitrogen, Carlsbad, Calif.) directly from purified PBMCs and were >99% pure. CD4^+ T cells were sorted by FACS ARIA cell sorter (BD, San Jose, Calif.) into CD45RO^+ CD25^− memory T (TM) cells. TM cells were activated either by anti-CD3 and anti-CD28 (aCD3/aCD28) coated beads (1:4 beads:cells ratio) for 18-24 hours, or by Phorbol 12-myristate 13-acetate (PMA) and ionomycin for 4 hours and further FACS sorted based on CCR6 and IL-17 expression into CCR6^−IL-17^−, CCR6^+IL-17^+, or CCR6^+ IL-17^− subsets (as determined by secretion assay labeling, see below). Sorted cells (>99% pure) were cultured in serum-free Xvivo-15 medium (Lonza, Wakersville, Md.) at 37° C. and 5% CO2 for 6-7 days prior to restimulation with PMA and ionomycin (see below). […]

[3] = system: TM cells; experiment: Cell viability of memory T cells treated with inhibitors; conditions: 1-10 μg/mL inhibitor, 48 hours
[4] = system: resting CCR6^+CD45RO^+CD25^− TM cells; experiment: Cytokine expression in resting CCR6+ memory T cells stimulated with cytokines without TCR stimulation; type: cell-based, human
Method: as §1, with “[…] […]” for “TM cells were activated either by anti-CD3 and anti-CD28 (aCD3/aCD28) coated beads (1:4 beads:cells ratio) for 18-24 hours, or by Phorbol 12-myristate 13-acetate (PMA) and ionomycin for 4 hours and further FACS sorted based on CCR6 and IL-17 expression into CCR6^−IL-17^−, CCR6^+IL-17^+, or CCR6^+ IL-17^− subsets (as determined by secretion assay labeling, see below). Sorted cells (>99% pure) were cultured in serum-free Xvivo-15 medium (Lonza, Wakersville, Md.) at 37° C. and 5% CO2 for 6-7 days prior to restimulation with PMA and ionomycin (see below).”

[5] = system: CCR6^+IL-17^− TM cells; experiment: IL-17 induction in activated, FACS-sorted CCR6+IL-17- memory T cells cultured with cytokines, intracellular staining after PMA/ionomycin; type: cell-based, human; conditions: for IL-17 expression in CCR6+IL-17- T cells: cultured 6 days in the cytokine, compared with IL-2, FIG. 1e
Method: as §1
Manufacturer's protocols (Miltenyi Biotec) for labeling human and mouse IL-17 secreting cells were followed. Briefly, activated T-cells were washed in cold buffer (PBS+0.5% BSA+2 mM EDTA) and labeled with IL-17 catch reagent for 5 minutes on ice. Pre-warmed medium was then added and the cells were incubated at 37° C. on a shaker for 45 minutes. For human IL-17 capture experiments, cells were washed once more with cold buffer and PE-conjugated IL-17 detection antibodies were added and incubated on ice for 10 minutes. For mouse IL-17 capture experiments, all steps were identical, except that the IL-17 detection antibody used was biotinylated, and a secondary staining step using APC-conjugated streptavidin was used. Cells were then washed and stained with additional cell surface antibodies at room temperature for 20 minutes. These cells were then washed once more with cold buffer, resuspended in serum-free RPMI 1640 medium, filtered and FACS sorted. […]

[6] = system: CCR6^− TM cells; experiment: IL-17 induction in sorted CCR6-IL-17- memory T cells cultured with cytokines; type: cell-based, human; conditions: cultured 6 days in the cytokine, restimulation
Method: as §2

[7] = system: CCR6^− TM cells; experiment: Cytokine expression in resting CCR6- memory T cells stimulated with IL-7; type: cell-based, human
Method: as §2

[8] = system: RORC; experiment: RORC / Foxp3 mRNA expression by quantitative PCR; type: cell-based, human; conditions: unpublished data
Text: Purified T cells (1×10^5) were snap frozen in liquid nitrogen for total RNA isolation. Total RNA was isolated using RNeasy isolation kit (Qiagen, Valencia, Calif.) according to the manufacturer's protocol. The extracted RNA was then reverse transcribed into cDNA and quantified using Taqman Cell to CT kit (Applied Biosystems, Carlsbad, Calif.). Taqman primers and probe sets were purchased from Applied Biosystems: Human KLF2 (Hs00360439_g1), RORC (Hs01076120_g1), Il-17a (Hs00174383_m1), b-Actin (Hs03023880_g1), Foxp3 (Hs00203958_m1). Data was acquired and analyzed on ABI 7500 sequence detection system. Quantitative real-time PCR data was analyzed by normalizing Ct values of genes of interest to the Ct values of the housekeeping gene b-Actin.

In the case of `O=c1[nH]c2ccccc2n1C1CCN(Cc2ccc(-c3nc4cc5nc[nH]c5cc4nc3-c3ccccc3)cc2)CC1` [AKTi-1/2], the “expression of IFNγ” value [1] is reported as “not affected”, the “expression of IL-4” value [1] is reported as “less reduced” and the “γc-mediated IL-17/IL-22 induction” value [1] is reported as “repressed γc-mediated IL-17/IL-22 induction in a dose-dependent manner”. For the same compound, the “cytokine-dependent phosphorylation of Akt” value [2] was “downregulated cytokine-dependent phosphorylation of Akt” and the cell viability [3] was “without adversely affecting cell viability”.

IL-4: another γc-cytokine was tested, and the “IL-17/IL-22 (Th17 cytokine) expression in resting CCR6+ TM cells” value ([4]; no TCR stimulation, unpublished data) was “did not promote Th17 cytokine production” and the TM cell survival ([4]; resting TM cells, unpublished data) was “did not promote Th17 cytokine production in resting CCR6^+ TM cells or confer TM cell survival”.

With “IL-7: γc-cytokine from R&D Systems, used at 20 ng/mL” the “IL-17 expression in CCR6+IL-17- T cells” value [5] was “induced similar levels of IL-17 expression”, the “IL-17 expression in CCR6- TM cells” value [6] was “neither IL-7 nor IL-15 induced IL-17 expression” and the “enhancement of IL-17 expression compared to the same cells ex vivo (day 0)” value ([4]; 10 days, no TCR stimulation) was “more than 3 fold”. The “enhancement of IL-22 expression compared to the same cells ex vivo (day 0)” value ([4]; 10 days, no TCR stimulation) was “more than 3 fold”, the “increase of cells co-expressing IL-22 or IFNγ with IL-17” value ([4]; IL-7 stimulation) was “more than 5 fold” and the IFNγ production ([4]; resting CCR6+ or CCR6- TM cells cultured with IL-7) was “almost no impact”. For the same compound, the “IL-17 or IL-22 expression in CCR6- TM cells” value [7] was “failed to express IL-17 or IL-22” and the “RORC mRNA expression levels” value [8] was “neither IL-7 stimulation, nor treatment with PI-3K or Akt inhibitors, nor overexpression of FOXO1 or KLF2 affected RORC mRNA expression levels”.

“IL-15: γc-cytokine from R&D Systems, used at 20 ng/mL” was tested, and the “IL-17 expression in CCR6+IL-17- T cells” value [5] was “induced similar levels of IL-17 expression” and the “IL-17 expression in CCR6- TM cells” value [6] was “neither IL-7 nor IL-15 induced IL-17 expression”.

For “IL-23: cytokine from R&D Systems, used at 20 ng/mL; known to enhance Th17 cell differentiation”, the “induction of IL-17/IL-22 expression from CCR6+ human TM cells” value ([5]; IL-23 in place of γc cytokines, unpublished data) was “not able to compensate for γc cytokines”, the “IL-17 expression in CCR6+IL-17- T cells” value [5] was “did not influence IL-17 expression” and the “further induction of IL-17 or IL-22 expression in combination with IL-7” value ([4]; resting CCR6+ TM cells) was “did not significantly synergize with IL-7”.

— patent US20130045491A1, “METHODS FOR ACTIVATING T CELLS” (priority 2011, published 2013)
